Data from patent US8647824B2, “Microbial reductive dehalogenation of vinyl chloride” (The Board of Trustees of the Leland Stanford Junior …, priority 2004, dated 2014).
Several values for one entry are separate records, joined by “and”; a condition that tells them apart may be missing. Equal values may be shown once. Marks after values point to notes of the source that are not given here.

Tests used:
[1] = system: Victoria mixed culture, containing strain VS; assay: Batch dechlorination and growth kinetics, Victoria mixed culture; type: cell-based, Dehalococcoides species strain VS; settings: for Maximum Growth Rate: VS Mixed (Victoria) culture, 95% confidence interval, least-squares model fit
Source text: (§1) Stock cultures. The Victoria mixed culture, containing strain VS, was maintained in a closed continuously stirred tank reactor (CSTR) as previously described. A VC enrichment of this culture, maintained over 5 years, was also used in these investigations. Liquid cultures of the three other cultures evaluated (Pinellas, KB-1/VC, and Dehalococcoides ethenogenes strain 195) were kept in anaerobic bottles, stored in an anaerobic chamber (10% H2, 10% CO2, 80% N2). The bottles were amended with TCE (1-3 μL neat liquid), VC (250 μL gas), and PCE (1-3 μL neat liquid) being added to each, respectively, approximately every two weeks.
(§2) Batch studies. For the experimental portion of this research, two studies were undertaken, one a comparative VC growth study, and the other a comparative growth and substrate utilization study with different chlorinated ethenes. These studies compared the dechlorination abilities of Dehalococcoides ethenogenes strain 195 and the Dehalococcoides-like microorganisms in the three mixed cultures (Victoria, KB-1/VC, and Pinellas).
(§3) For the first study, a VC enriched inoculum was first developed for each of the three mixed cultures. Here, bottles (120 mL) were filled with 60 mL of anaerobic media in an anaerobic chamber as previously described, and inoculated with 200 μL of each stock culture. Gaseous VC (99.5%) was added with a gas tight syringe (200 μL). The cultures were then moved to a shaker (60-80 rpm) in an anaerobic chamber (20±2° C.). Immediately after 5 μmol of ethene was formed in a bottle, 200 μL of the culture was transferred to fresh media (60 mL), in triplicate, and VC was again added (200 μL). The inoculum for the growth study was that formed after exactly 4 μmol of ethene was produced following this second transfer. To compare growth rates on VC, a range in concentration of each inocula (0.1, 0.3, 1, 3, 9 mL) was transferred to fresh media (as above) to result in a liquid volume of 60 mL, and gaseous VC (200 μL) was added to each. […] Hydrogen served as the electron donor and was non-limiting (>3%) in all studies. Headspace samples were periodically removed by syringe (250 μL) for chlorinated ethene analyses.
(§4) The purpose of the second study was to compare dechlorination rates of PCE, TCE and DCE between the three different cultures that grew on VC (Victoria, KB-1/VC and Pinellas). The development of inocula here was performed with VC, just as in the first study. For the growth and substrate utilization experiments, triplicate bottles were set up for each culture containing 1 mL of inoculum and either neat PCE (0.4 μL), neat TCE (0.3 μL), saturated DCE solution (34 μL) or gaseous VC (200 μL). To further investigate TCE removal, bottles (120 mL) were filled with 20 mL of a highly enriched culture of strain VS made from the Victoria culture. Duplicate bottles were supplied with gaseous VC (50 μL on day 0, then 150 μL on day 3) or TCE (0.4 μL neat liquid). Dechlorination was followed until all VC or TCE was converted to ethene (day 12). The change in strain VS concentration during VC and TCE utilization was then determined both by competitive PCR and by an activity procedure evaluated previously for strain VS. In the activity procedure a non-growth limiting concentration of VC (150 μL) along with excess hydrogen is added to a culture and the initial dechlorination rate is measured (over <1 day). A good estimate of strain VS concentration can then be obtained using the previously determined strain VS maximum VC utilization rate (7.8×10^−10 μmol Cl^− (cell·d)^−1). The increase in strain VS concentration during TCE or VC utilization was determined with these two procedures on the culture before and after TCE and VC utilization.
(§5) Comparative dechlorination and growth kinetics. With mixed cultures, the concentration of organisms carrying out a particular reaction is generally unknown and difficult to determine. […]

KB-1/VC culture = assay: Batch dechlorination and growth kinetics, KB-1/VC culture; type: cell-based, Dehalococcoides-like microorganisms; settings: for Maximum Growth Rate: 95% confidence interval
Source text: as §1, §2, §3, §4, §5

[2] = system: highly enriched culture of strain VS; assay: Batch dechlorination and growth, highly enriched culture of strain VS; type: cell-based, Dehalococcoides species strain VS; settings: for Final VC rate / Final cells: after utilization of the substance; for Final VC rate / Mass dechlorinated: duplicate bottles; for Final cells: duplicates, computed from VC rate; for Initial VC rate: before utilization of the substance, average and range of replicates; for Growth yield by competitive PCR: strain VS grown on the substance
Description: as §4
Comparative dechlorination and growth kinetics. With mixed cultures, the concentration of organisms carrying out a particular reaction is generally unknown and difficult to determine. Thus, reaction rates with mixed cultures are generally reported in units that cannot be used for comparative purposes. For example, dechlorination rates have been reported in mass removal rate per microcosm or bottle, per unit liquid volume, per unit of total biomass or per unit of total protein. However, the approach described here allows us to make direct comparisons of basic dechlorination and growth kinetics between cultures. The main parameter used in this comparison is organism maximum growth rate, which is directly related to dechlorination kinetics. The maximum growth rate for each culture was determined from a least-squares model fit to experimental data. For this purpose, the dechlorination of TCE, DCE, and VC was modeled using Monod kinetics with competitive kinetics between the multiple electron acceptors involved in dechlorination (for the case when electron donor is non-rate-limiting):
Modeling approach. The above procedure was utilized to compare VC, DCE and TCE maximum growth rates between the Dehalococcoides like-microorganisms in the three cultures (strain VS, KB-1/VC and Pinellas). Previously determined VC and DCE half-velocity and competitive coefficients were included in this modeling approach (Table 2). Also, a previously determined decay coefficient (0.05 d^−1) for cells growing under optimal conditions (non-limiting electron acceptor and donor) was included. This leaves the maximum growth rates on individual chlorinated ethenes (μV, μD, or μT) as the only fitting parameters, which were determined, together with the 95% confidence interval) using non-linear least-squares fit to the experimental data.
DNA isolation and competitive PCR. For the Victoria, Pinellas, and KB-1/VC genomic DNA was extracted (1 mL) from the inoculum used in the VC growth comparison study and also from cultures in the comparative substrate utilization study following complete TCE dechlorination. DNA was extracted using a DNeasy® tissue system (Qiagen Inc, Valencia, Calif.), following the manufacture's instructions (final volume 200 μL). DNA was extracted from the D. ethenogenes strain 195 culture following dechlorination of DCE. […]

Compound	Maximum Growth Rate [1]	Half velocity coefficient KT ([1]; VS Mixed culture) [µM]	Half velocity coefficient KT (KB-1/VC culture) [µM]	Maximum Growth Rate (KB-1/VC culture)	Half velocity coefficient KT ([2]; Highly enriched culture) [µM]	Maximum Growth Rate ([2]; Highly enriched strain VS culture, 95% confidence interval)	Final VC rate [2]	Final cells [2]	Initial VC rate [2]	Mass dechlorinated [2]	Growth yield by competitive PCR [2]	time to form 5 μmol of ethene ([1]; Victoria culture, 200 μL VC) [days]	time to form 5 μmol of ethene (KB-1/VC culture; 200 μL VC) [days]
ClC=C(Cl)Cl [TCE, trichloroethene]	0.35 ± 0.07 day⁻¹	9.0 ± 0.4	10.0 ± 2.0	0.33 ± 0.06 day⁻¹	12.4 ± 0.6	0.35 day⁻¹ and 0.35 ± 0.13 day⁻¹	312 µmol·days/L and 204 µmol·days/L	4.0 × 10^11 cell L^−1 and 2.6 × 10^11 cell L^−1	28 ± 2^a nmol (d · L)^−1	10.94 µmol and 8.97 µmol	4.7±0.3×10^8 cell/μmol Cl^−		
C=CCl [VC, vinyl chloride]	0.49 day⁻¹ and 0.49 ± 0.02 day⁻¹			0.42 day⁻¹ and 0.42 ± 0.03 day⁻¹			228 µmol·days/L and 204 µmol·days/L	2.9 × 10^11 cell L^−1 and 2.6 × 10^11 cell L^−1	28 ± 2^a nmol (d · L)^−1	10.39 µmol and 10.52 µmol	5.2±0.4×10^8 cell/μmol Cl^−	18	18
